# Reference: patent publication US20260022142A1, “MACROCYCLIC IMMUNOMODULATORS” (Bristol-Myers Squibb Company, priority 2022, published 2026)
# Bridge positions count the residues as written; N and C are the ends. Square brackets hold non-standard residues; d marks the D form. Peptide text beside a SMILES is read from it. * marks the point of attachment. ξ: configuration not given here. Phe(4-COOH) = N[C@@H](Cc1ccc(C(=O)O)cc1)C(=O)O; Bip = N[C@@H](Cc1ccc(-c2ccccc2)cc1)C(=O)O; Phe(3-Me) = Cc1cccc(C[C@H](N)C(=O)O)c1; NH(CH2)12COOH = O=C(O)CCCCCCCCCCCCN*; Val(3-OH) = CC(C)(O)[C@H](N)C(=O)O; hArg = N=C(N)NCCCC[C@H](N)C(=O)O; 4Pal = N[C@@H](Cc1ccncc1)C(=O)O; Cha = N[C@@H](CC1CCCCC1)C(=O)O; Cit = NC(=O)NCCC[C@H](N)C(=O)O; Ile(3ξ) = CCC(C)[C@H](N)C(=O)O; Thr(3ξ) = CC(O)[C@H](N)C(=O)O; 12Ado = NCCCCCCCCCCCC(=O)O; hSer = N[C@@H](CCO)C(=O)O; Carboxymethyl = O=C(O)C*; Orn = NCCC[C@H](N)C(=O)O; Aun = NCCCCCCCCCCC(=O)O; Dab = NCC[C@H](N)C(=O)O; Dap = NC[C@H](N)C(=O)O; AEEA = NCCOCCOCC(=O)O; ξC = NC(CS)C(=O)O
# Molecular target: T1, PD-1/PD-L1 interaction (PE-labeled human PD-L1-Ig binding to Jurkat cell line over-expressing human PD-1) (Homo sapiens, UniProt Q15116)
# T1 construct: expressed in transfected cells; host or cells: Jurkat
# Experiment: Jurkat-PD-1 Cell Binding High-Content Screening Assay (CBA)
# Assay type: cell-based
# Settings: Jurkat cell line over-expressing human PD-1; PE-labeled PD-L1-Ig 20 nM final; read-out: Jurkat hPD1-PDL1 IC50
# Summary of the method: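 First, compound is added to PD-1-expressing Jurkat cells in serum-containing DMEM and left 2 h at 37° C. Next, PE-conjugated PD-L1-Ig is introduced at 20 nM final concentration for 1 hour. Finally, cells are fixed in 4% paraformaldehyde with Hoechst 33342, washed and imaged.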
# T1 sequence (Q15116 25-288): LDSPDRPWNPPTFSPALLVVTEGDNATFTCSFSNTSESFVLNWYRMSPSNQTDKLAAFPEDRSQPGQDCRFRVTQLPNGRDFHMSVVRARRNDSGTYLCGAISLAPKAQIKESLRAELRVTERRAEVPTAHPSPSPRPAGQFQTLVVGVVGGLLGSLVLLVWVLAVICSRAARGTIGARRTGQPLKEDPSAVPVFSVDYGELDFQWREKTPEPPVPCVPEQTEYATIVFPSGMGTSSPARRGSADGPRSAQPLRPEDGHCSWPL
row,Compound,IC50 [nM]
1,Cc1cccc(C[C@@H]2NC(=O)[C@H](CC(=O)O)NC(=O)[C@H](Cc3ccncc3)NC(=O)[C@H](Cc3ccc(OCC(=O)O)cc3)NC(=O)CSC[C@@H](C(=O)N[C@@H](CN)C(=O)NCCCCCCCCCCC(=O)O)NC(=O)[C@H]([C@@H](C)O)NC(=O)[C@H](C(C)C)NC(=O)[C@H](CC3CCCCC3)NC(=O)[C@H](CCN)NC(=O)[C@@H](CC(C)C)NC(=O)[C@H](CCCN)NC(=O)[C@H](C(C)C)NC(=O)[C@H](Cc3ccc(-c4ccccc4)cc3)NC(=O)[C@H](C(C)C)NC2=O)c1 [Compound 1163] ({CH2CO}-Y(Carboxymethyl)[4Pal]D[Phe(3-Me)]V[Bip]V[Orn][dL][Dab][Cha]VTC[Dap][Aun]-OH; thioether N-14),55.1
2,Cc1cccc(C[C@@H]2NC(=O)[C@H](CC(=O)O)NC(=O)[C@H](Cc3ccc(OCC(=O)O)cc3)NC(=O)[C@H](CN)NC(=O)CSC[C@@H](C(=O)N[C@@H](CCN)C(=O)NCCCCCCCCCCC(=O)O)NC(=O)[C@H](CCO)NC(=O)[C@H](C(C)C)NC(=O)[C@H](CC3CCCCC3)NC(=O)[C@H](CCN)NC(=O)[C@@H](CC(C)C)NC(=O)[C@H](CCCN)NC(=O)[C@H](Cc3ccc(O)cc3)NC(=O)[C@H](Cc3ccc(-c4ccccc4)cc3)NC(=O)[C@H](Cc3ccc(OCC(=O)O)cc3)NC2=O)c1 [Compound 2102] ({CH2CO}-[Dap]Y(Carboxymethyl)D[Phe(3-Me)]Y(Carboxymethyl)[Bip]Y[Orn][dL][Dab][Cha]V[hSer]C[Dab][Aun]-OH; thioether N-14),29.1
3,CC(C)C[C@H]1NC(=O)[C@H](CCCN)NC(=O)[C@H](C(C)C)NC(=O)[C@H](Cc2ccc(-c3ccccc3)cc2)NC(=O)[C@H](C(C)C)NC(=O)[C@H](Cc2c[nH]c3ccccc23)NC(=O)[C@H](CC(=O)O)NC(=O)[C@H](Cc2ccc(C(=O)O)cc2)NC(=O)[C@H](Cc2ccc(OCC(=O)O)cc2)NC(=O)CSC[C@@H](C(=O)N[C@@H](CCCCN)C(=O)NCCCCCCCCCCC(=O)O)NC(=O)[C@H](CCCCN)NC(=O)[C@H](C(C)C)NC(=O)[C@H](CC2CCCCC2)NC(=O)[C@H](CCN)NC1=O [Compound 2531] ({CH2CO}-Y(Carboxymethyl)[Phe(4-COOH)]DWV[Bip]V[Orn][dL][Dab][Cha]VKCK[Aun]-OH; thioether N-14),22.2
4,Cc1cccc(C[C@@H]2NC(=O)[C@H](CC(=O)O)NC(=O)[C@H](Cc3ccc(OCC(=O)O)cc3)NC(=O)[C@H](C(C)O)NC(=O)CSCC(C(=O)N[C@@H](CCN)C(=O)NCCCCCCCCCCCCC(=O)O)NC(=O)[C@H](CO)NC(=O)[C@H](C(C)(C)O)NC(=O)[C@H](CC3CCCCC3)NC(=O)[C@H](CCN)NC(=O)[C@@H](CC(C)C)NC(=O)[C@H](CCCN)NC(=O)[C@H](CCCNC(=N)N)NC(=O)[C@H](Cc3ccc(-c4ccccc4)cc3)NC(=O)[C@H](Cc3ccc(O)cc3)NC2=O)c1 (stereo partly drawn) [Compound 3882] ({CH2CO}-[Thr(3ξ)]Y(Carboxymethyl)D[Phe(3-Me)]Y[Bip]R[Orn][dL][Dab][Cha][Val(3-OH)]S[ξC][Dab]-{NH(CH2)12COOH}; thioether N-14),26.8
5,Cc1cccc(C[C@@H]2NC(=O)[C@H](CC(=O)O)NC(=O)[C@H](Cc3ccc(OCC(=O)O)cc3)NC(=O)[C@H](CN)NC(=O)CSC[C@@H](C(=O)N[C@@H](CCCN)C(=O)NCCCCCCCCCCCC(=O)O)NC(=O)[C@H](C(C)O)NC(=O)[C@H](C(C)C)NC(=O)[C@H](CC3CCCCC3)NC(=O)[C@H](CCN)NC(=O)[C@@H](CC(C)C)NC(=O)[C@H](CCCN)NC(=O)[C@H](CCCNC(N)=O)NC(=O)[C@H](Cc3ccc(-c4ccccc4)cc3)NC(=O)[C@H](C(C)C)NC2=O)c1 (stereo partly drawn) [Compound 3122] ({CH2CO}-[Dap]Y(Carboxymethyl)D[Phe(3-Me)]V[Bip][Cit][Orn][dL][Dab][Cha]V[Thr(3ξ)]C[Orn][12Ado]-OH; thioether N-14),19.3
6,CCC(C)[C@@H]1NC(=O)[C@H](CC2CCCCC2)NC(=O)[C@H](CCN)NC(=O)[C@@H](CC(C)C)NC(=O)[C@H](CCCN)NC(=O)[C@H](C(C)CC)NC(=O)[C@H](Cc2ccc(-c3ccccc3)cc2)NC(=O)[C@H](C(C)CC)NC(=O)[C@H](Cc2c[nH]c3ccccc23)NC(=O)[C@H](CC(=O)O)NC(=O)[C@H](Cc2ccc(OCC(=O)O)cc2)NC(=O)[C@H](C(C)O)NC(=O)CSC[C@@H](C(=O)N[C@H](CC(N)=O)C(=O)NCCOCCOCC(=O)N[C@@H](CCCN)C(=O)NCCCCCCCCCCC(=O)O)NC(=O)[C@H](CO)NC1=O (stereo partly drawn) [Compound 3120] ({CH2CO}-[Thr(3ξ)]Y(Carboxymethyl)DW[Ile(3ξ)][Bip][Ile(3ξ)][Orn][dL][Dab][Cha][Ile(3ξ)]SC[dN][AEEA][Orn][Aun]-OH; thioether N-14),24.8
7,CC(C)C[C@H]1NC(=O)[C@H](CCCN)NC(=O)[C@H](C(C)C)NC(=O)[C@H](Cc2ccc(-c3ccccc3)cc2)NC(=O)[C@H](C(C)C)NC(=O)[C@H](Cc2c[nH]c3ccccc23)NC(=O)[C@H](CC(=O)O)NC(=O)[C@H](Cc2ccc(OCC(=O)O)cc2)NC(=O)[C@H](CCCCNC(=N)N)NC(=O)CSC[C@@H](C(=O)N[C@@H](C)C(=O)NCCOCCOCC(=O)N[C@@H](CCCN)C(=O)NCCCCCCCCCCC(=O)O)NC(=O)[C@H](C(C)O)NC(=O)[C@H](C(C)C)NC(=O)[C@H](CC2CCCCC2)NC(=O)[C@H](Cc2c[nH]cn2)NC1=O (stereo partly drawn) [Compound 3032] ({CH2CO}-[hArg]Y(Carboxymethyl)DWV[Bip]V[Orn][dL]H[Cha]V[Thr(3ξ)]CA[AEEA][Orn][Aun]-OH; thioether N-14),26.5

# Now from value to compound:
row,IC50 [nM],Compound
1,14.6,Cc1cccc(C[C@@H]2NC(=O)[C@H](CC(=O)O)NC(=O)[C@H](Cc3ccc(OCC(=O)O)cc3)NC(=O)[C@H](CC(N)=O)NC(=O)CSC[C@@H](C(=O)N[C@@H](CCN)C(=O)NCCCCCCCCCCC(=O)O)NC(=O)[C@H](C(C)O)NC(=O)[C@H](C(C)C)NC(=O)[C@H](CC3CCCCC3)NC(=O)[C@H](CCN)NC(=O)[C@@H](CC(C)C)NC(=O)[C@H](CCCN)NC(=O)[C@H](CCCNC(N)=O)NC(=O)[C@H](Cc3ccc(-c4ccccc4)cc3)NC(=O)[C@H](C(C)C)NC2=O)c1 (stereo partly drawn) [Compound 3455] ({CH2CO}-NY(Carboxymethyl)D[Phe(3-Me)]V[Bip][Cit][Orn][dL][Dab][Cha]V[Thr(3ξ)]C[Dab][Aun]-OH; thioether N-14)
2,16.4,Cc1cccc(C[C@@H]2NC(=O)[C@H](CC(=O)O)NC(=O)[C@H](Cc3ccc(OCC(=O)O)cc3)NC(=O)[C@H](C(C)O)NC(=O)CSC[C@@H](C(=O)NCCOCCOCC(=O)NCCCCCCCCCCC(=O)O)NC(=O)[C@H](C(C)O)NC(=O)[C@H](C(C)C)NC(=O)[C@H](CC3CCCCC3)NC(=O)[C@H](CCN)NC(=O)[C@@H](CC(C)C)NC(=O)[C@H](CCN)NC(=O)[C@H](C(C)C)NC(=O)[C@H](Cc3ccc(-c4ccccc4)cc3)NC(=O)[C@H](C(C)C)NC2=O)c1 (stereo partly drawn) [Compound 3442] ({CH2CO}-[Thr(3ξ)]Y(Carboxymethyl)D[Phe(3-Me)]V[Bip]V[Dab][dL][Dab][Cha]V[Thr(3ξ)]C[AEEA][Aun]-OH; thioether N-14)
3,11.8,Cc1cccc(C[C@@H]2NC(=O)[C@H](CC(=O)O)NC(=O)[C@H](Cc3ccc(OCC(=O)O)cc3)NC(=O)[C@H](C(C)O)NC(=O)CSC[C@@H](C(=O)N[C@@H](CCN)C(=O)NCCOCCOCC(=O)NCCCCCCCCCCC(=O)O)NC(=O)[C@H](CCCCN)NC(=O)[C@H](C(C)C)NC(=O)[C@H](CC3CCCCC3)NC(=O)[C@H](CCN)NC(=O)[C@@H](CC(C)C)NC(=O)[C@H](CCCN)NC(=O)[C@H](Cc3ccc(O)cc3)NC(=O)[C@H](Cc3ccc(-c4ccccc4)cc3)NC(=O)[C@H](Cc3ccc(O)cc3)NC2=O)c1 (stereo partly drawn) [Compound 3607] ({CH2CO}-[Thr(3ξ)]Y(Carboxymethyl)D[Phe(3-Me)]Y[Bip]Y[Orn][dL][Dab][Cha]VKC[Dab][AEEA][Aun]-OH; thioether N-14)
4,6.9,Cc1cccc(C[C@@H]2NC(=O)[C@H](CC(=O)O)NC(=O)[C@H](Cc3ccc(OCC(=O)O)cc3)NC(=O)[C@H](C(C)O)NC(=O)CSC[C@@H](C(=O)NCCOCCOCC(=O)NCCCCCCCCCCC(=O)O)NC(=O)[C@H](CCC(N)=O)NC(=O)[C@H](C(C)C)NC(=O)[C@H](CC3CCCCC3)NC(=O)[C@H](CCN)NC(=O)[C@@H](CC(C)C)NC(=O)[C@H](CCN)NC(=O)[C@H](Cc3ccc(O)cc3)NC(=O)[C@H](Cc3ccc(-c4ccccc4)cc3)NC(=O)[C@H](C(C)C)NC2=O)c1 (stereo partly drawn) [Compound 3394] ({CH2CO}-[Thr(3ξ)]Y(Carboxymethyl)D[Phe(3-Me)]V[Bip]Y[Dab][dL][Dab][Cha]VQC[AEEA][Aun]-OH; thioether N-14)
